Test results taken from PMC4810224, “Validation of the Target Protein of Insecticidal Dihydroagarofuran Sesquiterpene Polyesters” (Toxins, 2016).

biological target: T1, subunit H of V-ATPase (recombinant subunit H) (Mythimna separata, UniProt A0A0D3L6K4); test: microscale thermophoresis (Monolith NT.[…]), RED-NHS labelled protein; format: binding
T1 construct: full CDS in pET-15b, N-terminal His tag, E. coli BL21 (DE3), Ni-NTA twice, ~55 kDa, free subunit
T1 sequence (A0A0D3L6K4 1-474): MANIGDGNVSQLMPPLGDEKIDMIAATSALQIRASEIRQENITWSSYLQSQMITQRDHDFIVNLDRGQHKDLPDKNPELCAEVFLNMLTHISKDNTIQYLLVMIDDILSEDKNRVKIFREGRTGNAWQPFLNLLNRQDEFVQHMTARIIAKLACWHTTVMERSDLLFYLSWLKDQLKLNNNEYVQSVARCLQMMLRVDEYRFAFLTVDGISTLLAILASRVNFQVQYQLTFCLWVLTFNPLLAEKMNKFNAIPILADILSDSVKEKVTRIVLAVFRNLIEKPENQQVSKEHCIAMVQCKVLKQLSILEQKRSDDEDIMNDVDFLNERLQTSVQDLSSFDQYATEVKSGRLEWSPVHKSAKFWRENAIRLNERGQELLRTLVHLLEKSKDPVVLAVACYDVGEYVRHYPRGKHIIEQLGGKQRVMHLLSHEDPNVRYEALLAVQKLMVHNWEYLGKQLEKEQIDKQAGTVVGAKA

In order of rising Kd:
1. CC(=O)O[C@H]1C[C@](C)(O)[C@]23OC(C)(C)[C@H]([C@H](OC(=O)C(C)C)[C@@H](OC(=O)c4ccccc4)[C@]2(COC(=O)C(C)C)[C@H]1OC(C)=O)[C@H]3OC(=O)C(C)N (stereo partly drawn) [CV-6-α-aminopropanoic acid ester]  144 µM
2. CC(=O)O[C@H]1C[C@](C)(O)[C@]23OC(C)(C)[C@H]([C@H](OC(=O)C(C)C)[C@@H](OC(=O)c4ccccc4)[C@]2(COC(=O)C(C)C)[C@H]1OC(C)=O)[C@H]3OC(=O)CN [CV-6-aminoacetic acid ester]  156 µM
3. CNc1ccccc1C(=O)O[C@@H]1[C@H]2[C@H](OC(=O)C(C)C)[C@@H](OC(=O)c3ccccc3)[C@]3(COC(=O)C(C)C)[C@@H](OC(C)=O)[C@@H](OC(C)=O)C[C@](C)(O)[C@@]13OC2(C)C [CV-6-N-methylisatoic]  213 µM
